Measured values taken from article PMC6222450, “Computer-Aided Studies for Novel Arylhydantoin 1,3,5-Triazine Derivatives as 5-HT6 Serotonin Receptor Ligands with Antidepressive-Like, Anxiolytic and Antiobesity Action In Vivo” (Molecules : A Journal of Synthetic Chemistry and Natural …, 2018).
Values joined by “and” are separate entries in the source; they are usually repeats but may differ in a detail not shown here. Identical values can stand only once.

Experiments:
human serotonin 5-HT6R = target: T1, human serotonin 5-HT6R (Homo sapiens, UniProt P50406); assay: Radioligand binding assay, 5-HT6R, [3H]-LSD displacement
T1 construct: expressed in transfected cells; host or cells: HEK-293
Description: Five selective radioligands were employed (Table 1).
Radioligand binding assays were used to determine the affinity of the synthesized compounds for human serotonin 5-HT6R, which were stably expressed in HEK-293 cells. […] Each compound was tested in triplicate at 7 to 8 different concentrations (10^−11 to 10^−4 M). The inhibition constants (Ki) were calculated using the Cheng–Prusoff equation [40], and the results are expressed as the mean of at least two independent experiments.

dopaminergic D2LR = target: T2, dopaminergic D2LR (Homo sapiens, UniProt P14416); assay: Radioligand binding assay, D2LR, [3H]-Raclopride; details: human D2L receptor stably expressed in HEK-293 cells; read-out: Ki D2 [3H]-Raclopride
T2 construct: expressed in transfected cells; host or cells: HEK-293

5-HT1A = target: T3, 5-HT1A (Homo sapiens, UniProt P08908); assay: Radioligand binding assay, 5-HT1A, [3H]-8-OH-DPAT; details: human receptor stably expressed in HEK-293 cells
T3 construct: expressed in transfected cells; host or cells: HEK-293
T3 sequence (P08908 1-422): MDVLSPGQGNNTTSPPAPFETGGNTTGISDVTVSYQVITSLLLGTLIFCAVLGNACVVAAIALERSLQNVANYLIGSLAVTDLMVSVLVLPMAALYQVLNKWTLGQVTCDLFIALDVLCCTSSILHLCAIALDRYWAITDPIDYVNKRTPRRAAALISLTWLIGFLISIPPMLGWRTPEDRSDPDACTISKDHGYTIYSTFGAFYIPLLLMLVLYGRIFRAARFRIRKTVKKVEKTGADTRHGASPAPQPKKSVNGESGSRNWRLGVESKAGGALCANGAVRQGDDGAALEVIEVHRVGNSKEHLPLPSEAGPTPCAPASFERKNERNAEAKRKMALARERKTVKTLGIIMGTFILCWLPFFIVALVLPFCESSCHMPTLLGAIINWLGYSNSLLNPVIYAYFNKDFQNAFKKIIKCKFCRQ

5-HT7bR = target: T4, 5-HT7bR (Homo sapiens, UniProt P34969); assay: Radioligand binding assay, 5-HT7bR, [3H]-5-CT; details: human 5-HT7b receptor stably expressed in HEK-293 cells; read-out: Ki 5-HT7 [3H]-5-CT
T4 construct: expressed in transfected cells; host or cells: HEK-293

male Wistar rats [1] = assay: Forced swim test (FST); type: in vivo, rat; details: i.p. 60 min before test, 5 min observation, p < 0.05
Description: (§1) The experiments were performed on male Wistar rats (200–220 g—behavioural test or 170–190 g—metabolic assay) obtained from an accredited animal facility at the Jagiellonian University Medical College, Poland. The animals were housed in a group of four in a controlled environment (ambient temperature 21 ± 2 °C; relative humidity 50–60%; 12 h light/dark cycles (lights on at 8:00). Standard laboratory food (LSM-B) and filtered water were freely available (behavioral tests). Animals were assigned randomly to treatment groups. All the experiments were performed by two observers unaware of the treatment applied between 9:00 and 14:00 on separate groups of animals. All animals were used only once.
(§2) Compounds were suspended in 1% Tween 80 immediately before administration in a volume of 2 mL/kg—behavioral tests or 1 mL/kg—body weight measures. Compounds were administered intraperitoneally (i.p.) 60 min before testing—behavioral tests. Control animals received vehicle (1% Tween 80) according to the same schedule.
The experiment was carried out according to the method of Porsolt et al.. […] On the following day (24 h later), the rats were replaced in the cylinder and the total duration of immobility was recorded during the whole 5-min test period. […]

male Wistar rats [2] = assay: Vogel conflict drinking test; type: in vivo, rat; details: 3 mg/kg i.p. 60 min before test, 5 min session, p < 0.05
Description: as §1, §2
The testing procedure was based on a method of Vogel et al. and used the Anxiety Monitoring System “Vogel test” produced by TSE Systems (Germany). […] The number of licks and the number of shocks received during a 5 min experimental session were recorded automatically.

[3] = Body weight of non-obese rats fed palatable diet (model of excessive eating); type: in vivo, rat
From the text: In order to determine the anorectic activity of 6 or 26, the model of excessive eating was used. Male Wistar rats (170–190 g) were housed in a pair in plastic cages in constant temperature facilities exposed to a light-dark cycle. Water and food were available ad libitum. Two groups of 6 rats were fed with diets consisting of milk chocolate with nuts, cheese, salted peanuts, and 7% condensed milk and also had access to standard feed (Labofeed B, Morawski Manufacturer Feed, Kcynia, Poland) and water ad libitum for 3 weeks. Palatable control group (palatable diet + vehicle) received vehicle (1% Tween 80, intraperitoneally), while palatable test group (palatable diet + 6 or palatable + 26) was injected (intraperitoneally) with 6 or 26 at the dose of 5 mg/kg b.w. dissolved in 1% Tween 80 (1 mL/kg). Body weights were measured daily, immediately prior to administration of drugs.
The palatable diet contained: 100 g peanuts—614 kcal; 100 mL condensed milk—131 kcal; 100 g milk chocolate—529 kcal; 100g cheese (Greek type)—270 kcal. The standard diet contained 100 g feed—280 kcal.

T1 sequence (P50406 whole entry): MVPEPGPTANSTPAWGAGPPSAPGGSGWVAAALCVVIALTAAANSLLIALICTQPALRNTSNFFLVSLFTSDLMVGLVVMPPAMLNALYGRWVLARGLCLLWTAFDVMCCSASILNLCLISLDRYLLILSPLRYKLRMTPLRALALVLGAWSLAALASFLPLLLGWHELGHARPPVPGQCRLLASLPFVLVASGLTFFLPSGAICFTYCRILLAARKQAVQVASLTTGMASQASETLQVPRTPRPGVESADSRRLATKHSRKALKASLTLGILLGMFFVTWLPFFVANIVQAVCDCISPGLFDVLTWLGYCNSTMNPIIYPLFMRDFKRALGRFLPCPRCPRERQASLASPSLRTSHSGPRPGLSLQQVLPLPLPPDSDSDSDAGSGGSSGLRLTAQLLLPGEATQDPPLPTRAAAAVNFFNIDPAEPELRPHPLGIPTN
T2 sequence (P14416 whole entry): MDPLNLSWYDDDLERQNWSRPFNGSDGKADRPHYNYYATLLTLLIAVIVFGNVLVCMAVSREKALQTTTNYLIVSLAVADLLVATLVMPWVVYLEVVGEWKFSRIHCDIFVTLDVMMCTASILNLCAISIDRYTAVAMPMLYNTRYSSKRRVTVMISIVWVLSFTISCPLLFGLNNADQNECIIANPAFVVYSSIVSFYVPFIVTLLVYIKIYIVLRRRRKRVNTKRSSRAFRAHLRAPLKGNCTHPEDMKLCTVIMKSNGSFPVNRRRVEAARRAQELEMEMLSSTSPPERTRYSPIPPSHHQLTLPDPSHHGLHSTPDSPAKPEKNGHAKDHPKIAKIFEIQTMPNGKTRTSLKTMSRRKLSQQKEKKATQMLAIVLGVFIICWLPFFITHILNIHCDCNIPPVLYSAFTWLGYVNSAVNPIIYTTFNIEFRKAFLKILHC
T4 sequence (P34969 1-432 limits assumed): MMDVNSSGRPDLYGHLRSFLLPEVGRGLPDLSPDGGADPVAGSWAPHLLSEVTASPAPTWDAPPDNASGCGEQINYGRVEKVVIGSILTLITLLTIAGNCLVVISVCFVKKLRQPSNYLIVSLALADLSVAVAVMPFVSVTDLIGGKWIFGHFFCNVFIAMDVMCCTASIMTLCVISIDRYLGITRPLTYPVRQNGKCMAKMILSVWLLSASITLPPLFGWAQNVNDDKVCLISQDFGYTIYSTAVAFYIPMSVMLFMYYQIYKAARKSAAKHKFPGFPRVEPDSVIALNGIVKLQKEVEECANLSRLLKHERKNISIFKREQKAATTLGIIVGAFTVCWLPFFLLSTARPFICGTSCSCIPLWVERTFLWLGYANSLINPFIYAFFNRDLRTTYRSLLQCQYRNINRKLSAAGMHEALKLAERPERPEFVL

Compound: CN1CCN(c2nc(N)nc(CN3C(=O)NC(C)(c4ccc5ccccc5c4)C3=O)n2)CC1 (centres unmarked) [Compound 26, 3-((4-Amino-6-(4-methylpiperazin-1-yl)-1,3,5-triazin-2-yl)methyl)-5-methyl-5-(naphthalen-2-yl)imidazolidine-2,4-dione]
- selectivity towards competitive G-protein coupled receptors (human serotonin 5-HT6R; 5-HT6R vs 5-HT1A, 5-HT2A, 5-HT7, D2): 6–197 fold
- selectivity over 5-HT7R (human serotonin 5-HT6R; 5-HT6R vs 5-HT7R): 6 fold
- Ki (human serotonin 5-HT6R; human receptor stably expressed in HEK-293 cells, mean of at least two independent experiments, read-out: Ki 5-HT6 [3H]-LSD): < 200 nM and 87 nM
- Ki (dopaminergic D2LR): 4250 nM
- Ki (5-HT1A): 14200 nM
- Ki (5-HT7bR): 514 nM
- decrease of immobility time vs. vehicle treated group (male Wistar rats [1]): about 20%
- increase of number of accepted shocks (male Wistar rats [2]): 76%
- day of experiment from which groups differed significantly ([3]; rats fed palatable feed, 5 mg/kg b.w. i.p. daily): 12 days
- weight gain vs control group ([3]; rats fed palatable feed, 5 mg/kg b.w. i.p., 21 days): significantly less weight gain
- body weight vs control animals fed standard feed ([3]; treated rats with access to preferential feed, 5 mg/kg b.w. i.p.): did not differ significantly
